Assays:
wt EryAIII M6 = target: T1, wt EryAIII M6 (Saccharopolyspora erythraea, UniProt Q03133); assay: SDS-PAGE autoradiography of self-loading; format: biochemical; conditions: HEPES pH 7.4, RT; covalent; labelled compound; data not shown
T1 sequence (Q03133 1468-2900 limits assumed): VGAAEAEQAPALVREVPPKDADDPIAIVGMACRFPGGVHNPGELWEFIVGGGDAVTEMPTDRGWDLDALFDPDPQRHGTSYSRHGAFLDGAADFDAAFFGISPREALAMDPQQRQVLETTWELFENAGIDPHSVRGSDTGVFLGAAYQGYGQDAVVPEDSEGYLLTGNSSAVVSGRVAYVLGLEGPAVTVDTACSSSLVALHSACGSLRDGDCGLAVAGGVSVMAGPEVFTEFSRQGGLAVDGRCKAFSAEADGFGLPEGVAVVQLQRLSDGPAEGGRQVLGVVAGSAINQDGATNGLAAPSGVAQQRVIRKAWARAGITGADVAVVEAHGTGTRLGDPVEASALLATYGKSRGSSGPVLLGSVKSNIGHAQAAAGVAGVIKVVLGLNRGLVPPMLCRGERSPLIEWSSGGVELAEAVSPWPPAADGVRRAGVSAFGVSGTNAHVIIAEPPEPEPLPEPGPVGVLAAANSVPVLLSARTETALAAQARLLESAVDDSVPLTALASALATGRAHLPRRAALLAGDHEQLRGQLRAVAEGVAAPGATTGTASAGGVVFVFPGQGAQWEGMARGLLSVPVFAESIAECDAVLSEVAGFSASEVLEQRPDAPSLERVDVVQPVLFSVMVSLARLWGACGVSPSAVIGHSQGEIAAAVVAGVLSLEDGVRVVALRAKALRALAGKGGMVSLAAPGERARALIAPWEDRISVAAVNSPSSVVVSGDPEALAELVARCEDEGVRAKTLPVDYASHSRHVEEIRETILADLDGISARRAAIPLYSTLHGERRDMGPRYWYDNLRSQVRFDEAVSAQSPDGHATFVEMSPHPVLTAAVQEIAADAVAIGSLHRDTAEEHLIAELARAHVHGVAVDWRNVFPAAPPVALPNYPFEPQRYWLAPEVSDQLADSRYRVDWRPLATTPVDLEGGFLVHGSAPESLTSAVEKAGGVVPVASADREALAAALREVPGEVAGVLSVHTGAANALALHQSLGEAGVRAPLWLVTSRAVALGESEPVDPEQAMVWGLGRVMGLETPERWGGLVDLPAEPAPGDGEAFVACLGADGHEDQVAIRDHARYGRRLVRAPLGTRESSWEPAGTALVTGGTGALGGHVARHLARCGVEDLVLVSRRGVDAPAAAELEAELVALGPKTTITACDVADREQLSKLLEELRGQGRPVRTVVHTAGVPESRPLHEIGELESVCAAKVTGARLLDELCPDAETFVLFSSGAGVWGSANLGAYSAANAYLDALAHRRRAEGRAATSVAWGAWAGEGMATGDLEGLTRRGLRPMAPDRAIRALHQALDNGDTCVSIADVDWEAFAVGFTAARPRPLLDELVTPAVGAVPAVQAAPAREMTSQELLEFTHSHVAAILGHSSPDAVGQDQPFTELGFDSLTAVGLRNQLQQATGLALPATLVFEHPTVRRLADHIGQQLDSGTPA

wt PikAIV M6 = wt PikAIV M6 (Streptomyces venezuelae, UniProt Q9ZGI2); assay: SDS-PAGE autoradiography of self-loading; format: biochemical; conditions: 0.4 mM; HEPES pH 7.4, RT, 5 min; covalent; labelled compound
Sequence of wt PikAIV M6 (Q9ZGI2 whole entry): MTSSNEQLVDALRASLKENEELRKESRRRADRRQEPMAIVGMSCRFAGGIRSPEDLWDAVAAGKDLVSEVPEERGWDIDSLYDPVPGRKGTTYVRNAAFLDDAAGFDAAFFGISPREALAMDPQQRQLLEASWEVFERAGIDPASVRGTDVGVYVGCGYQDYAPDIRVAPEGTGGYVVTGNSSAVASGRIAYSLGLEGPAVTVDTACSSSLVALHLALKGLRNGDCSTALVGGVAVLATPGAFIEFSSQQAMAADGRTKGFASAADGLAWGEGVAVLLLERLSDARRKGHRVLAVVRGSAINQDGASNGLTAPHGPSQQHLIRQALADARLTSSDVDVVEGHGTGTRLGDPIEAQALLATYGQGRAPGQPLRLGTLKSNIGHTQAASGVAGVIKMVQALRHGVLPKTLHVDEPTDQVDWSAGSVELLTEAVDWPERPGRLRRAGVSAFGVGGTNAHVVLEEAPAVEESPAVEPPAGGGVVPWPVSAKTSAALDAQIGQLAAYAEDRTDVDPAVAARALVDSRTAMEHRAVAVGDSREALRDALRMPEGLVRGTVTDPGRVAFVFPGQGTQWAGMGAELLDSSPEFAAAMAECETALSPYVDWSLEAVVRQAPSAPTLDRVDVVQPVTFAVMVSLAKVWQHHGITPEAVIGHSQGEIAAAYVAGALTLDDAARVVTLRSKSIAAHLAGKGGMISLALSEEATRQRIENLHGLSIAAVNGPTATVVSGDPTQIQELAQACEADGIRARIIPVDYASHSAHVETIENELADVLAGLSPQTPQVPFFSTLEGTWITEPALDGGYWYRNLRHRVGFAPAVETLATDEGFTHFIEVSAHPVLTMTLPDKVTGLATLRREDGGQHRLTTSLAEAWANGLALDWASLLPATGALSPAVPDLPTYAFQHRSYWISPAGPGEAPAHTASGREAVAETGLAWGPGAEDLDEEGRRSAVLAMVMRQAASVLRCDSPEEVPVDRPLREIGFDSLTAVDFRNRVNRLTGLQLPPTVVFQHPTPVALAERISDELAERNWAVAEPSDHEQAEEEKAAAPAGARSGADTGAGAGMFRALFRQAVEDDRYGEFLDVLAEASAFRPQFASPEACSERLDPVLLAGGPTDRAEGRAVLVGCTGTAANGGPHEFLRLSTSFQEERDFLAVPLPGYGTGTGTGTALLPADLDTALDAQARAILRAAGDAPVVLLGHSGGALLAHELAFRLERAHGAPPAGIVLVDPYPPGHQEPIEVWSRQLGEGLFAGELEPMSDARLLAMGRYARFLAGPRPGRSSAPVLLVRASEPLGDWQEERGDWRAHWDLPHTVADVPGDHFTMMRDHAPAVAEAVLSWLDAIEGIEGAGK

In the case of `CC(C(=O)O)C(=O)SCCNC(=O)CCNC(=O)[C@H](O)C(C)(C)COP(=O)(O)OP(=O)(O)OC[C@H]1O[C@@H](n2cnc3c(N)ncnc32)[C@H](O)[C@@H]1OP(=O)(O)O` (some centres unmarked) [methylmalonyl-CoA], the “SDS-PAGE autoradiography of self-loading” value (wt EryAIII M6) is reported as “wt EryAIII M6 was able to self-load methylmalonyl-CoA” and the “SDS-PAGE autoradiography of self-loading” value (wt PikAIV M6) is reported as “The wt PikAIV M6 was able to self-load and transfer methylmalonyl-CoA, but not malonyl-CoA”.
